According to patent US8012952B2, “Cationic 17 α-substituted-estradiol derivatives useful as anti-cancer agent” (Council of Scientific & Industrial Research, priority 2007, dated 2011):

Tests used:
MDA-MB-468 cells = assay: MTT cell viability assay, MDA-MB-468 cells; details: Homo sapiens, MDA-MB-468, read-out: in-vitro percent cell viability
Procedure: (§1) The in vitro cytotoxicities of the derivative A to various cancer and non-cancer cells across different molar concentrations (0.5 μM-50 μM) were performed. The cancer cells were chosen from various origins, such as breast cancer cells MCF-7 (primary carcinoma), T47D (ductal carcinoma), MDA-MB-468 (secondary, metastatic); cervical cancer cell Hela; lung cancer cell A549 (metastatic). […] In one set of experiments, the cells were treated at different concentrations of derivative A for 4 h, washed and kept in serum media for 6 days to observe cellular toxicity using MTT assay (FIGS. 1, 2, 4, 6A and 6B), except for one cell line where the assay was done after 4 days (FIG. 3). In another set of experiment, the cells were treated continuously for 48 h in presence of serum media and cellular toxicities were assayed promptly (FIG. 5).
(§2) Cells and Cell Culture. CHO (Chinese hamster ovary), COS-1 (African Green monkey kidney cells) HeLa (Human cervical carcinoma), MCF-7 (Human breast primary adenocarcinoma), T47D (Human breast ductal carcinoma), MDA-MB-468 (Human breast secondary adenocarcinoma), and A-549 (Human lung carcinoma) cell lines were procured from the National Centre for Cell Sciences (NCCS), Pune, India and were mycoplasma free. […] The cells were trypsinized, counted, subcultured in 96-well plates for viability studies. […]

Hela cells = assay: MTT cell viability assay, Hela cells; details: Homo sapiens, read-out: in-vitro percent cell viability
Procedure: as §1, §2

MCF-7 cells = assay: MTT cell viability assay, MCF-7 cells; details: Homo sapiens, MCF7, read-out: in-vitro percent cell viability
Procedure: as §1, §2

T47D cells = assay: MTT cell viability assay, T47D cells; details: Homo sapiens, read-out: in-vitro percent cell viability
Procedure: as §1, §2

Measured: viability at 50 µM

CCCCCCCC[N+](C)(CCCCCCCC)CCC[C@]1(O)CCC2C3CCc4cc(O)ccc4C3CC[C@@]21C (stereo partly drawn) [Derivative 1, 17α-[3-N,N-dioctyl(methyl)aminopropane]-17β-Estradiol]
2 to 10%: all assays above
